The source of these data is patent US4585756A, “Bovine GRF” (The Salk Institute for Biological Studies, priority 1983, dated 1986).

SMILES strings stand for the structures.

The test concerns rat pituitary cells. Description: in vitro release of growth hormone (ir GH by radioimmunoassay) from cultured rat pituitary cells, side-by-side with hGRF(1-44)-NH2. It counts as cell-based. On the procedure: To determine the effectiveness of the peptide to promote the release of growth hormone, in vitro assays are carried out using synthetic hGRF(1-44)-NH2 in side-by-side comparison with equimolar concentrations of the extracted and purified bGRF(1-44) of Example II. hGRF thus serves as a GRF Reference Standard having a known effectiveness to promote the release of growth hormone from rat pituitary cells. Cultures are used which include cells of rat pituitary glands removed some four to five days previously. Both cultures of a defined standard medium and cultures which are considered optimal for the secretion of growth hormone are used for the comparative testing, in the general manner described in Brazeau, et al. Regulatory Peptides, 1, 255, 1981. Incubation with the substance to be tested is carried out for 3 to 4 hours, and aliquots of the culture medium are removed and processed to measure their contents in immunoreactive GH(ir GH) by a well-characterized radioimmunoassay.

The mark [1] stands for this setting: equimolar ratios, rat pituitary cell cultures, incubation 3 to 4 hours.

For `CC[C@H](C)[C@H](NC(=O)[C@H](C)NC(=O)[C@H](CC(=O)O)NC(=O)[C@H](C)NC(=O)[C@@H](N)Cc1ccc(O)cc1)C(=O)N[C@@H](Cc1ccccc1)C(=O)N[C@H](C(=O)N[C@@H](CC(N)=O)C(=O)N[C@@H](CO)C(=O)N[C@@H](Cc1ccc(O)cc1)C(=O)N[C@@H](CCCNC(=N)N)C(=O)N[C@@H](CCCCN)C(=O)N[C@H](C(=O)N[C@@H](CC(C)C)C(=O)NCC(=O)N[C@@H](CCC(N)=O)C(=O)N[C@@H](CC(C)C)C(=O)N[C@@H](CO)C(=O)N[C@@H](C)C(=O)N[C@@H](CCCNC(=N)N)C(=O)N[C@@H](CCCCN)C(=O)N[C@@H](CC(C)C)C(=O)N[C@@H](CC(C)C)C(=O)N[C@@H](CCC(N)=O)C(=O)N[C@@H](CC(=O)O)C(=O)N[C@H](C(=O)N[C@@H](CCSC)C(=O)N[C@@H](CC(N)=O)C(=O)N[C@@H](CCCNC(=N)N)C(=O)N[C@@H](CCC(N)=O)C(=O)N[C@@H](CCC(N)=O)C(=O)NCC(=O)N[C@@H](CCC(=O)O)C(=O)N[C@@H](CCCNC(=N)N)C(=O)N[C@@H](CC(N)=O)C(=O)N[C@@H](CCC(N)=O)C(=O)N[C@@H](CCC(=O)O)C(=O)N[C@@H](CCC(N)=O)C(=O)NCC(=O)N[C@@H](C)C(=O)N[C@@H](CCCCN)C(=O)N[C@H](C(=O)N[C@@H](CCCNC(=N)N)C(=O)N[C@@H](CC(C)C)C(N)=O)C(C)C)[C@@H](C)CC)C(C)C)[C@@H](C)O` [bGRF(1-44)], under setting [1], the “intrinsic biological activity (GH release) compared with synthetic hGRF(1-44)-NH2” value is “full intrinsic biological activity” and the “potency (GH release) compared with synthetic hGRF(1-44)-NH2” value is “close to the same potency”. The “intrinsic activity relative to hGRF(1-44)-NH2” value (multiple doses factorial design experiments) is given as “same intrinsic activity”. Moreover, the “specific activity relative to hGRF(1-44)-NH2” value (multiple doses factorial design experiments, % of hGRF(1-44)-NH2, confidence limits of 54-93%) is given as “about 70%”.
